From patent publication US9783499B2, “Quinoline derivatives and their applications” (Shenyang Pharmaceutical University, priority 2012, dated 2017)
≈ marks a conversion by molar mass, not a printed value.

Assays:
[1] = system: HT-29 (colon cancer cell); test: In vitro anti-tumor cellular activity (MTT), HT-29; type: cell-based; conditions: 72 hours
Description: (§1) After pouring the cell dissociation buffer to the centrifugetube, nutrient solution was added to stop digestion. The centrifugetube were centrifuged for 10 min under 800 r/min, the liquid supernatant was removed, 5 mL culture solution was added, after mixing by pipetting the cell, took 10 μL cell suspension to the cell counting plat, and adjusted the cell concentration to 10^4/well. Among the 96 wells, A1 is empty, 100 μL of cell suspension were added to the other wells. The 96 well plates were incubated in the incubator for 24 h. […] The 96-well plates were placed in an incubator and cultivated for 72 hours. (3) The culture media containing the compounds in the 96-well plates was discarded, and the cells were washed with phosphate buffered solution (PBS) twice. Each well was added with 100 μL MTT (tetrazole) (0.5 mg/mL), and then placed in an incubator to incubate for 4 hours, after which MTT solution was discarded and 100 μL dimethyl sulfoxide was added thereto.

[2] = system: MKN-45 (human gastric carcinoma cell); test: In vitro anti-tumor cellular activity (MTT), MKN-45; type: cell-based; conditions: 72 hours
Description: as §1

[3] = system: MDA-MB-231 (human beast cancer cell); test: In vitro anti-tumor cellular activity (MTT), MDA-MB-231; type: cell-based; conditions: 72 hours
Description: as §1

[4] = system: H460 (human lung cancer cell); test: In vitro anti-tumor cellular activity (MTT), H460; type: cell-based; conditions: for H460 IC50: 72 hours
Description: as §1

[5] = system: U87MG (Human malignant glioblastoma cell); test: In vitro anti-tumor cellular activity (MTT), U87MG; type: cell-based; conditions: 72 hours
Description: as §1

[6] = system: SMMC-7721 (hepatoma cell); test: In vitro anti-tumor cellular activity (MTT), SMMC-7721; type: cell-based; conditions: 72 hours
Description: as §1

[7] = system: human tumor cell lines (such as human lung cancer cells, human gastric cancer cells, etc.); conditions: cited from earlier work

| Compound | HT-29 IC50 [1] [mg/L] | MKN-45 IC50 [2] [mg/L] | MDA-MB-231 IC50 [3] [mg/L] | H460 IC50 [4] [mg/L] | U87MG IC50 [5] [mg/L] | SMMC-7721 IC50 [6] [mg/L] | IC50 ([1]; Homo sapiens) [mg/L] | IC50 ([2]; Homo sapiens) [mg/L] | IC50 ([3]; Homo sapiens) [mg/L] | IC50 ([4]; Homo sapiens, NCI-H460, 72 hours) [mg/L] | IC50 ([5]; Homo sapiens, U-87 MG) [mg/L] | IC50 ([6]; Homo sapiens) [mg/L] | IC50 against a variety of human tumor cell lines [7] |
| --- | --- | --- | --- | --- | --- | --- | --- | --- | --- | --- | --- | --- | --- |
| COc1cc2c(Oc3ccc(NC(=S)N/N=C/c4ccccc4[N+](=O)[O-])cc3F)ccnc2cc1OCCCN1CCCC1 [Example 32] | 0.24 | 0.33 | 0.13 | 0.19 | 1.2 | 0.77 |  |  |  |  |  |  |  |
| COc1cc2c(Oc3ccc(NC(=S)N/N=C/c4ccccc4)cc3F)ccnc2cc1OCCCN1CCCC1 [Example 36, (E)-N^1-(3-fluoro-4-(6-methoxy-7-(3-(pyrrolidin-1-yl)propoxy)quinoline-4-yloxy)phenyl)-N^4-(benzaldehyde)thiosemicarbazone] | 0.012 | 0.11 | 0.048 | 0.034 | 0.29 | 0.35 |  |  |  |  |  |  |  |
| COc1cc2c(Oc3ccc(NC(=S)N/N=C/c4ccccc4)cc3F)ccnc2cc1OCCCN1CCC(C)CC1 [Example 37, (E)-N^1-(3-fluoro-4-(6-methoxy-7-(3-(4-methylpiperidin-1-yl)propoxy)quinoline-4-yloxy)phenyl)-N^4-(benzaldehyde)thiosemicarbazone] | 0.13 | 0.56 | 0.13 | 0.089 | 0.50 | 0.43 |  |  |  |  |  |  |  |
| COc1cc2c(Oc3ccc(NC(=S)N/N=C/c4ccccc4)cc3F)ccnc2cc1OCCCN1CCOCC1 [Example 38, (E)-N^1-(3-fluoro-4-(6-methoxy-7-(3-(morpholin-4-yl)propoxy)quinoline-4-yloxy)phenyl)-N^4-(benzaldehyde)thiosemicarbazone] | 0.28 | 0.11 | 0.18 | 0.16 | 0.90 | 1.4 |  |  |  |  |  |  |  |
| COc1cc2c(Oc3ccc(NC(=S)N/N=C/c4ccccc4)cc3F)ccnc2cc1OCCCN1CCN(C)CC1 [Example 39, (E)-N^1-(3-fluoro-4-(6-methoxy-7-(3-(4-methyl-1-piperazinyl)propoxy)quinoline-4-yloxy)phenyl)-N^4-(benzaldehyde)thiosemicarbazone] | 0.94 | 0.59 | 0.97 | 1.1 | 1.6 | 1.7 |  |  |  |  |  |  |  |
| COc1cc2c(Oc3ccc(N(/N=C/c4ccc(F)cc4)C(N)=S)cc3F)ccnc2cc1OCCCN1CCOCC1 [Example 45, (E)-N^1-(3-fluoro-4-(6-methoxy-7-(3-(morpholin-4-yl)propoxy)quinoline-4-yloxy)phenyl)-N^4-(4-fluorobenzaldehyde)thiosemicarbazone] |  |  |  |  |  |  | 0.19 (≈ 0.313 µM) | 0.37 (≈ 0.609 µM) | 0.17 (≈ 0.28 µM) | 0.11 (≈ 0.181 µM) | 0.9 (≈ 1.48 µM) | 1 (≈ 1.65 µM) |  |
| COc1cc2c(Oc3ccc(C=NNC(=O)Nc4ccc(Cl)c(C(F)(F)F)c4)cc3F)ccnc2cc1OCCCN1CCCCC1 [Example 46] | 0.45 | 0.23 | 0.25 | 0.33 | 1.2 | 0.69 |  |  |  |  |  |  |  |
| COc1cc2c(Oc3ccc(C=NNC(=O)Nc4cccc(Br)c4)cc3F)ccnc2cc1OCCCN1CCOCC1 [Example 54, (E)-N^1-(3-bromophenyl)-N^4-(3-fluoro-4-(6-methoxy-7-(3-(morpholin-4-yl)propoxy)quinoline-4-yloxy)benzaldehyde)semicarbazone] | 1.3 | 2.0 | 0.96 | 1.5 | 1.8 | 2.7 |  |  |  |  |  |  |  |
| COc1cc2c(Oc3ccc(C=NNC(=S)Nc4ccc(Cl)c(C(F)(F)F)c4)cc3F)ccnc2cc1OCCCN1CCC(C)CC1 [Example 64, (E)-N^1-[4-chloro-3-(trifluoromethyl)phenyl]-N^4-(3-fluoro-4-(6-methoxy-7-(3-(4-methylpiperidin-1-yl)propoxy)quinoline-4-yloxy)benzaldehyde)thiosemicarbazone] | 0.34 | 0.65 | 0.98 | 0.56 | 1.7 | 1.0 |  |  |  |  |  |  |  |
| COc1cc2c(Oc3ccc(/C=N/NC(=S)Nc4cccc(Br)c4)cc3F)ccnc2cc1OCCCN1CCOCC1 [Example 65, (E)-N^1-(3-bromophenyl)-N^4-(3-fluoro-4-(6-methoxy-7-(3-(morpholin-4-yl)propoxy)quinoline-4-yloxy)benzaldehyde)thiosemicarbazone] | 1.9 | 4.8 | 2.1 | 2.4 | 3.4 | 2.8 |  |  |  |  |  |  |  |
| COc1cc2c(Oc3ccc(NC(=O)C4(C(=O)Nc5ccc(F)cc5)CC4)cc3F)ccnc2cc1OCCCN1CCOCC1 [Foretinib] |  |  |  |  |  |  |  |  |  |  |  |  | about 0.004 mg/mL |
| (E)-N^1-(3,5-dichlorophenyl)-N^4-(3-fluoro-4-(6-methoxy-7-(3-(piperidin-1-yl)propoxy)quinolin-4-yloxy)benzylidene)thiosemicarbazide [Example 61] | 0.076 | 0.15 | 0.092 | 0.054 | 0.21 | 0.22 |  |  |  |  |  |  |  |
| (E)-N^1-(3-fluoro-4-(6-methoxy-7-(3-(4-methylpiperidin-1-yl)propoxy)quinoline-4-yloxy)phenyl)-N^4-(2-chloro-4-fluorobenzaldehyde)semicarbazone [Example 13] | 0.16 | 0.27 | 0.16 | 0.097 | 0.33 | 0.29 |  |  |  |  |  |  |  |
| (E)-N^1-(3-fluoro-4-(6-methoxy-7-(3-(piperidin-1-yl)propoxy)quinolin-4-yloxy)phenyl)-N^4-(3,4-difluorobenzylidene)thiosemicarbazide [Example 31] | 0.013 | 0.11 | 0.059 | 0.041 | 0.22 | 0.39 |  |  |  |  |  |  |  |
| (E)-N^1-(3-fluoro-4-(6-methoxy-7-(3-(piperidin-1-yl)propoxy)quinoline-4-yloxy)phenyl)-N^4-(2,4-dichlorobenzaldehyde)thiosemicarbazone [Example 41] | 0.13 | 0.10 | 0.088 | 0.097 | 0.54 | 0.66 |  |  |  |  |  |  |  |
| (E)-N^1-(3-fluoro-4-(6-methoxy-7-(3-(piperidin-1-yl)propoxy)quinoline-4-yloxy)phenyl)-N^4-(2-nitrobenzaldehyde)thiosemicarbazone [Example 34] | 0.076 | 0.12 | 0.077 | 0.089 | 0.19 | 0.24 |  |  |  |  |  |  |  |
| (E)-N^1-phenyl-N^4-(3-fluoro-4-(6-methoxy-7-(3-(4-methylpiperidin-1-yl)propoxy)quinoline-4-yloxy)benzaldehyde)thiosemicarbazone [Example 63] | 0.50 | 0.73 | 0.14 | 0.33 | 1.0 | 0.64 |  |  |  |  |  |  |  |
